Reference: ChEMBL document CHEMBL5727197, “Bicyclic urea, thiourea, guanidine and cyanoguanidine compounds useful for the treatment of pain” (2019)

What follows are compounds tested against High affinity nerve growth factor receptor (Homo sapiens, UniProt P04629) (assay: Kinase Binding Assay: TrkA binding activity was determined in a TrkA LanthaScreen™ Eu Kinase Binding Assay. 5 nM His-tagged recombinant human TrkA (6HIS tagged cytoplasmic domain from Invitrogen, Catalog No. PV3144) was incubated with 4 nM Alexa-Fluor® Tracer 236 (Invitrogen Cat. No. PV5592), 2 nM biotinylated anti-His (Invitrogen Cat. No. PV6090), and 2 nM europium-labeled Streptavidin (Invitrogen Cat. No. PV5899), in buffer (25 mM MOPS, pH 7.5, 5 mM MgCl2, 0.005% Triton X-100). Three fold serial dilutions of compounds of the invention in DMSO were added to a final percentage of 2% DMSO. After 60-minute incubation at 22° C., the reaction was measured using the EnVision mutlimode plate reader (PerkinElmer) via TR-FRET dual wavelength detection at […]. The percent of control was calculated using a ratiometric emission factor.).
Chain of High affinity nerve growth factor receptor (P04629 whole entry, the tested form may be a part): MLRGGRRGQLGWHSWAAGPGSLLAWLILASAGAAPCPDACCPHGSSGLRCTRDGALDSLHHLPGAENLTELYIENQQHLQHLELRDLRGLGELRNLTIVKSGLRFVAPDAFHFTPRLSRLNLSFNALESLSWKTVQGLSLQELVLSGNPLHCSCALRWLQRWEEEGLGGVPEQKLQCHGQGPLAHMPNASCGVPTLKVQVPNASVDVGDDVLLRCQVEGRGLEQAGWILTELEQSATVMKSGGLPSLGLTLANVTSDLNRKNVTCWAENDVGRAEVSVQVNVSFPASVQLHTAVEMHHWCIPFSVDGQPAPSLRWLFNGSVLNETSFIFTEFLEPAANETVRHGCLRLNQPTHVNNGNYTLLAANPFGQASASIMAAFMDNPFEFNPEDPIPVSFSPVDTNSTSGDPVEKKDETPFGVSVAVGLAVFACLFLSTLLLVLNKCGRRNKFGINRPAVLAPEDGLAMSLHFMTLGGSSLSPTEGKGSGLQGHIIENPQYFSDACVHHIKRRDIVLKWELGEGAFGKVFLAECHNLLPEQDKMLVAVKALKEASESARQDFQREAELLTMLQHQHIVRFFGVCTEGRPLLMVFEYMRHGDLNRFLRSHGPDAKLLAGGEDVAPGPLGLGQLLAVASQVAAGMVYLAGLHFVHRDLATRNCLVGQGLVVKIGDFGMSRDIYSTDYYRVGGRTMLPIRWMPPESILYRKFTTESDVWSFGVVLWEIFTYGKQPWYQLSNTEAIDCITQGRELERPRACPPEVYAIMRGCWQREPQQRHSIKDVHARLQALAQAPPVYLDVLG

IC50, < 0.1 µM:
CC(C)(C)OC(=O)N1CCO[C@@H](COc2nn(-c3ccccc3)c(NC(=O)N[C@@H]3c4ccccc4C4(CC4)[C@H]3O)c2Cl)C1, Cc1c(-c2ccc(=O)n(C)c2)nn(-c2ccccc2)c1NC(=O)NC1CN(CC(F)(F)F)Cc2ccccc21 (stereo not drawn), CC1(C)C[C@@H](O)[C@H](NC(=O)Nc2c3c(nn2-c2ccccc2)COC3)c2ccccc21 (relative stereo)
